Values after ≈ are worked out from the molar mass of the structure shown. Read-outs that look alike come from different tables or passages of the source.
Tests used:
HeLa MKYP cells [1] = assay: Human mitophagy assay (HeLa mKeima assay, FACS); type: cell-based; settings: for EC50: Homo sapiens, HeLa
Summary of the method: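 HeLa cells carrying the pH-sensitive mtKeima tag incubated 16 h with compound at several concentrations, then 1 uM FCCP/oligomycin for 6 h. FACS detects mitochondria in lysosomes through the Keima emission shift, quantified as percentage of cells in mitophagy.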

HeLa MKYP cells [2] = assay: Cell death measured by DAPI staining, with 1 μM FCCP/oligomycin or no toxin (no FO); type: cell-based; settings: for E105 death at 8.3 μM (no FO): 8.3 μM compound; for Max cell death at 25 μM compound, 1 uM FO (%) / Cell death at 25 μM (no FO) (%) / E104 death at 25 μM (no FO): 25 μM compound
Summary of the method: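 HeLa MKYP cells were treated with compounds alongside 1 μM FCCP/oligomycin or no toxin for 6 or 6.5 h. Cell death was scored by DAPI staining, with H2O2 treatment as the death control.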

[3] = Mitotoxicity / Mitotox safety margin (therapeutic window); type: cell-based; settings: for mitotoxicity: FIG. 5-7
Kinetic solubility = type: physicochemical
[4] = HeLa mKeima assay, read-out: Mitophagy EC50 (HeLa mKeima assay)
[5] = mitophagy, 1 μM FCCP/oligomycin, read-out: E100 EC50
[6] = read-out: Mitophagy induction EC50
[7] = mitophagy, 1 μM FCCP/oligomycin

SMILES	E102 max mitophagy, fold over DMSO (HeLa MKYP cells [1]; 1 μM FCCP/oligomycin) [fold over DMSO]	EC50 (HeLa MKYP cells [1]; [4]) [µM]	EC50 (HeLa MKYP cells [1]; [5]) [µM]	EC50 (HeLa MKYP cells [1]; [6]) [µM]	E101 lowest effective dose (HeLa MKYP cells [1]; [7]) [µM]	E105 death at 8.3 μM (no FO) (HeLa MKYP cells [2])	Max cell death at 25 μM compound, 1 uM FO (%) (HeLa MKYP cells [2])	Cell death at 25 μM (no FO) (%) (HeLa MKYP cells [2])	E104 death at 25 μM (no FO) (HeLa MKYP cells [2])	Highest safe dose (cytotoxicity; no FO; safe means DAPI+ <20%) (HeLa MKYP cells [2]) [µM]	E103 max death with 1 μM FO (HeLa MKYP cells [2])	Max % death with 1 μM FO (HeLa MKYP cells [2]) [%]	Mitotox safety margin (Therapeutic window) [3]	mitotoxicity [3]	Mito-Safety Index (highest safe dose/EC50) [3]	Highest safe dose (μM) (mitotox or cytotox) [3] [µM]	solubility kinetic (Kinetic solubility) [µM]	EC50 (HeLa MKYP cells [1]; average ± spread, read-out: E100 EC50 (μM) (average)) [µM]
Fc1ccc2c(c1)CC[C@@H](N1CCOCC1)[C@@H]2Nc1ncnc2[nH]c(C(F)(F)F)cc12 (single isomer, unassigned) [EP-0038504]	4.67	14.2	14.2	14.2	8.33	2.93	4.59	3.1	3.10	25.0	4.59	4.6	+ (+ = <10)	low mitotoxicity	1.76	25.0	1.56 (≈ 0.679 µg/mL)	
FC(F)(F)c1cc2c(N[C@H]3c4ccccc4CC[C@@H]3N3CCCCC3)ncnc2[nH]1 (single isomer, unassigned) [EP-0038392]		2.77		> 25			23.2	3.1		25.0		23.2					187 (≈ 77.7 µg/mL)	
Fc1ccc2c(c1)CC[C@H](N1CCOCC1)[C@H]2Nc1ncnc2[nH]c(C3CC3)cc12 (single isomer, unassigned) [EP-0038521]	5.24	0.37	0.37	0.34	2.78		6.77	3.42		25.0	6.77	7.6	+++ (+++ = 20 < x < 30)	low mitotoxicity	24.49	8.3	1.56 (≈ 0.636 µg/mL)	0.3 ± 0.07
CN(CC1CCOCC1)[C@H]1CCc2ccccc2[C@@H]1Nc1ncnc2[nH]c(C(F)(F)F)cc12 [EP-0038394]		8.26		> 25			61	11.4		8.3		61.0					7.05 (≈ 3.24 µg/mL)	
FC(F)(F)c1cc2c(N[C@@H]3c4ccccc4CC[C@@H]3N3CCOCC3)ncnc2[nH]1 [EP-0037820]		17.4		20.3			58	41.4		16.7		60.7	+ (+ = <10)				14.5 (≈ 6.05 µg/mL)	
c1ccc2c(c1)CC[C@H](N1CCOCC1)[C@H]2Nc1ncnc2[nH]c(C3CC3)cc12 (racemic) [EP-0039677]		0.21		0.21			10.2	3.02		25.0		10.2	++++ (++++ = 30<)		13.51	2.8	1.56 (≈ 0.608 µg/mL)	
FC(F)(F)c1cc2c(N[C@@H]3c4ccccc4CC[C@H]3N3CCOCC3)ncnc2[nH]1 (racemic) [EP-0037821]	9.53	0.4	0.45	0.38	0.30	2.87	71.62	41.03	25.17	13.9	62.82	68.5	++++ (++++ = 30<)		22.05	8.3	14.1 (≈ 5.89 µg/mL)	

Reference: patent US20240018146A1, “COMPOSITIONS AND METHODS OF USING THE SAME FOR TREATMENT OF NEURODEGENERATIVE AND MITOCHONDRIAL DISEASE” (MITOKININ, INC., priority 2020, published 2024)
